# In paper PMC5059467, “Anti-tubulin drugs conjugated to anti-ErbB antibodies selectively radiosensitize” (Nature Communications, 2016):
# Square brackets hold non-standard residues; d marks the D form. Peptide text beside a SMILES is read from it. * marks the point of attachment. Dolaproine = CO[C@@H]([C@@H]1CCCN1)[C@@H](C)C(=O)O; Dil = CC[C@H](C)[C@H](NC)[C@@H](CC(=O)O)OC; X1 = C[C@@H](N*)[C@@H](O)c1ccccc1; NMeV = CN[C@H](C(=O)O)C(C)C
# How the values were obtained:
# [1] = test system: OE19 tumour xenografts; experiment: OE19 tumour xenograft growth with or without IR; format: in vivo, mice; details: for Tumour doubling time in days (mean, 95% CI): OE19 (HER2+)
# Description: (§1) CAL-27, OE19, NCI N87 and HCT116 tumour xenografts were established and tumour growth was measured with digital calipers. Tumour volume was measured blindly to treatment group and calculated using the formula as ½ × length × width^2. Mice were randomized into groups once the average tumour volume reached >100 mm^3. Mice were assigned to indicated groups in ‘Results'. […] For irradiated mice, the tumour-bearing hindlimbs were focally irradiated while the remainder of the mouse was shielded from IR with custom designed lead blocking >95% of the dose as verified by dosimeters placed on the mouse. […] To prevent unnecessary morbidity, mice were killed if tumour length exceeded 15 mm per protocol. Nonlinear regression least squares fit was used to calculate tumour volume doubling times. […] To minimize the number of mice used, tumours were grown in the bilateral flanks.
# [2] = test system: HCT116 tumour xenografts; experiment: HCT116 tumour xenograft growth with or without IR; format: in vivo, mice; details: for Tumour doubling time in days (mean, 95% CI): HCT116 (HER2−)
# Description: as §1
# [3] = test system: OE19 cells; experiment: Alamar blue cell viability, OE19 cells; format: cell-based, human; details: HER2+ OE19; 72–96 h
# [4] = test system: OE19 tumours; experiment: Immunohistochemistry of OE19 tumour xenografts (pS10 Histone H3, cleaved caspase 3); format: in vivo, mice; details: tumours harvested 48 h after drug
# Description: Tissue sections were cut from blocks of formalin-fixed paraffin embedded xenografts. Four micron thick tissue sections were stained with antibodies to phospho-histone H3 (pH3, Abcam, catalogue number ab32107) and cleaved caspase-3 (ClC3, Cell Signaling Technology, catalogue number 9661) and used at dilutions of 1:300 and 1:900, respectively. Slides were stained on a Ventana Discovery Ultra (Ventana Medical Systems, Tucson, AZ, USA). Antigen retrieval was performed using CC1 for 24–40 min at 95 °C. The primary antibodies were incubated on the sections for 1 h at 37 °C. Primary antibodies were visualized used DAB as a chromagen using the UltraMap system (Ventana Medical systems) followed by hematoxylin as a counterstain. Slides were rinsed, dehydrated through alcohol and xylene and coverslipped.
# Immunostained slides were scanned using an Axio Scan.Z1 (Zeiss; Oberkochen, Germany). […] Whole-slide images were imported into Definiens Software for quantitative analysis (Definiens; Munich, Germany). […] For analysis of pH3 (a nuclear stain), the total number of nuclei and the total number of nuclei showing DAB staining (pH3 positive cells) were recorded within each ROI. The percent of positive nuclei was then calculated for each sample. For analysis of ClC3 (a cytoplasmic stain), mean DAB chromagen intensity was measured and calculated within the ROI for each sample.
# [5] = test system: HCT116 cells; experiment: Cell cycle profile (propidium iodide, flow cytometry), HCT116 cells; format: cell-based, human; details: overnight treatment
# Description: (§2) Cells were treated with RNAse, stained with propidium iodide (PI) and analysed by FACS using FloJo software.
# [6] = test system: HER2+ and HER2− cell lines; experiment: Neutral comet assay after IR, HER2+ and HER2− cell lines; format: cell-based, human; details: 20 nM overnight, 2 Gy
# Description: (§3) Cells were collected 15 min post IR, suspended in agarose gel and lysed per assay directions (Trevigen). Samples underwent electrophoresis under neutral conditions and were then stained with Sybr Green. Comet tails were counted in multiple fields (>60 cells per sample) and analysed using CometScore (TriTek Corp). Comet tail length was normalized to vehicle-treated, non-irradiated cells.
# [7] = test system: OE19 cells; experiment: Cell cycle profile (propidium iodide, flow cytometry), OE19 cells; format: cell-based, human; details: overnight treatment
# Description: as §2
# [8] = test system: NCI N87 tumour xenografts; experiment: NCI N87 tumour xenograft growth with or without IR; format: in vivo, mice; details: for Tumour doubling time in days (mean, 95% CI): NCI N87 (HER2+)
# Description: as §1
# [9] = test system: HCT116 cells; details: read-out: IC50 (cell viability); HER2- HCT116; 72–96 h
# Description: (§4) Alamar Blue (resazurin) was added to the cells and allowed to incubate for 2–4 h at 37 °C. Plates were analysed using a plate reader with fluorescence measured at 560 nm.
# [10] = test system: CAL-27 cells
# Description: as §4
# [11] = test system: NCI N87 cells; details: read-out: IC50 (cell viability); HER2+ NCI N87 (gastric cancer); 72–96 h
# Description: as §4
# [12] = test system: OE19 cells; experiment: Neutral comet assay after IR, OE19 cells; format: cell-based, human
# Description: as §3
# [13] = test system: cell lines irrespective of HER2 expression; experiment: Alamar blue cell viability, cell lines irrespective of HER2 expression; format: cell-based, human; details: fairly consistent across cell lines irrespective of HER2 expression; 72–96 h
# [14] = test system: CAL-27 cells; experiment: Clonogenic cell survival (SF2), CAL-27 cells; format: cell-based, human; details: compared with vehicle
# Description: Following IR, cells were counted, re-plated at varying cell numbers in drug-free media. […] Surviving fraction at 2 Gy (SF2) was calculated as the fraction of cells surviving 2 Gy compared with non-irradiated cells.
# [15] = test system: HCT116 cells; experiment: Clonogenic cell survival (SF2), HCT116 cells; format: cell-based, human; details: 5 nM overnight then 2 Gy, compared with vehicle
# Description: Following IR, cells were counted, re-plated at varying cell numbers in drug-free media. 10–14 days after initial seeding formed colonies were methanol fixed, stained with crystal violet and counted. Surviving fraction at 2 Gy (SF2) was calculated as the fraction of cells surviving 2 Gy compared with non-irradiated cells.
# [16] = test system: CAL-27 cells; experiment: Cell cycle profile (propidium iodide, flow cytometry), CAL-27 cells; format: cell-based, human; details: overnight treatment
# Description: as §2
# [17] = parameters: method as in PMID 25681274; details: cited from earlier work
# [18] = test system: CALU3 cells; experiment: Neutral comet assay after IR, CALU3 cells; format: cell-based, human; details: 2 nM overnight, 6 Gy, compared with vehicle or 20 nM antibody
# Description: as §3
# [19] = test system: CAL-27 tumour xenografts; experiment: CAL-27 tumour xenograft growth with or without IR; format: in vivo, mice; details: Fig 4f, 0.5 nmol cetuximab or C-MMAE, 2 nmol free MMAE on day 0
# Description: as §1
# [20] = 0.25 nmol (∼1.9 mg kg^−1) day 0, 2.5 Gy days 1, 2 and 3
# [21] = 0.25 nmol T-DM1 i.v. day 0, +IR 2.5 Gy on days 1, 2 and 3, extrapolated
compound,measurement,setting,value
ado-trastuzumab emtansine [T-DM1],tumour regression with T-DM1 and IR,[1]; [20],significantly prolonged tumour regression
same,"Tumour doubling time in days (mean, 95% CI)",[1]; [21],66 (33+) days
same,"Tumour doubling time in days (mean, 95% CI)","[1]; 0.25 nmol i.v. day 0, no IR",11 (8–17) days
same,slowing of tumour growth compared with control or trastuzumab,"[1]; single dose of 1 nmol, by day 14",equally efficacious in slowing tumour growth
same,"Tumour doubling time in days (mean, 95% CI)","[2]; 0.25 nmol i.v. day 0, +IR 2.5 Gy on days 1, 2 and 3",7 (5–12) days
same,"Tumour doubling time in days (mean, 95% CI)","[2]; 0.25 nmol i.v. day 0, no IR",3 (2–5) days
same,benefit of adding T-DM1 to IR,"[2]; HER2- HCT116, 0.25 nmol day 0, 2.5 Gy days 1, 2 and 3",no benefit of adding T-DM1 to IR
same,IC50,[3],< 1 nM
same,cells in G2/M in tumours (pS10 Histone H3 IHC),[4],increased the number of cells in radiosensitive G2/M phase
same,cell cycle profile (G2/M),[5],resembled vehicle-treated cells
same,"radiosensitization (IR induced DNA double-strand breaks, comet tail length)",[6],restricted radiosensitization of HER2+ cells
same,cell cycle profile (G2/M),[7],blocked OE19 cells in G2/M
same,tumour regression with T-DM1 and IR,[8]; [20],significantly prolonged tumour regression
same,"Tumour doubling time in days (mean, 95% CI)",[8]; [21],113 (82–179) days
same,"Tumour doubling time in days (mean, 95% CI)","[8]; 0.25 nmol i.v. day 0, no IR",23 (21–25) days
same,IC50,[9],> 100 nM
same,IC50,"[10]; read-out: IC50 (cell viability), HER2- CAL-27, 72–96 h",> 100 nM
same,IC50,[11],< 1 nM
same,radiosensitization (comet tail length),"[12]; 2 nM T-DM1, irradiated OE19 (HER2+)",radiosensitized
COc1cc2cc(c1Cl)N(C)C(=O)C[C@H](OC(=O)[C@H](C)N(C)C(=O)CCS)[C@]1(C)O[C@H]1[C@H](C)[C@@H]1C[C@@](O)(NC(=O)O1)[C@H](OC)/C=C/C=C(\C)C2 [mertansine],cell cycle profile (G2/M),[5],increased the accumulation
same,"radiosensitization (IR induced DNA double-strand breaks, comet tail length)",[6],radiosensitized by increasing IR induced DNA double-strand breaks in both HER2+ and HER2− cell lines
same,IC50,[13],~10 nM
same,surviving fraction following 2 Gy (SF2),[14]; 5 nM mertansine overnight then 2 Gy,decreased further
same,cell cycle profile (G2/M),[7],increased the accumulation
same,surviving fraction following 2 Gy (SF2),[15],decreased further
CC(=O)O[C@H]1C(=O)[C@@]2(C)[C@H]([C@H](OC(=O)c3ccccc3)[C@]3(O)C[C@H](OC(=O)[C@H](O)[C@@H](NC(=O)c4ccccc4)c4ccccc4)C(C)=C1C3(C)C)[C@]1(OC(C)=O)CO[C@@H]1C[C@@H]2O [paclitaxel],"cytotoxic potency, paclitaxel compared with T-DM1","[10]; HER2- CAL-27 cells, 96 hours",more potent than T-DM1
"CC[C@H](C)[C@@H]([C@@H](CC(=O)N1CCC[C@H]1[C@H](OC)[C@@H](C)C(=O)N[C@H](C)[C@@H](O)c1ccccc1)OC)N(C)C(=O)[C@@H](NC(=O)[C@@H](NC)C(C)C)C(C)C [MMAE, monomethyl auristatin E] (H-[NMeV]V[Dil][Dolaproine]-X1)",cell cycle profile (G2/M),[16],accumulating in G2/M
same,concentration level effective as radiosensitizer,[17],single nM level
same,surviving fraction following 2 Gy (SF2),[14]; drug overnight then 2 Gy,decreased
same,cell cycle profile (G2/M),[7],accumulating in G2/M
same,effect on IR induced comet tail length,[18],increased comet tail length to a similar degree
same,"Mean Diff. Control vs. treatment + IR (Tukey's multiple comparisons, tumour volume)","[19]; day 35, + IR 3 Gy on days 1 and 2",246.7
same,"Mean Diff. Control vs. treatment (Tukey's multiple comparisons, tumour volume)","[19]; day 35, no IR",272
same,effect on IR induced comet tail length,"[12]; 2 nM overnight, 6 Gy, compared with vehicle, 20 nM antibody or 2 nM C-MMAE",further increased comet tail length
